Patent US20200055948A1, “CELLS EXPRESSING A BCMA-TARGETING CHIMERIC ANTIGEN RECEPTOR, AND COMBINATION THERAPY WITH A GAMMA SECRETASE INHIBITOR” (Novartis AG, priority 2017, published 2020)
pEC50: −log10 of the molar value.

Experiments:
shed/soluble BCMA = assay: GSI inhibition of shed/soluble BCMA (sBCMA), ELISA of supernatants after 72 hours, NCI-H929, MM1S, U266B1 (Example 2, Table 30, FIG. 3); format: cell-based, human; settings: for pEC50: Homo sapiens, 72 hours, ELISA of supernatants; for efficacious concentrations, rank among the panel of GSIs: inhibition of BCMA shedding and enhancement of membrane BCMA, Table 30
Procedure: (§1) FIG. 3 is a panel of graphs comparing soluble/shed BCMA (sBCMA) levels to membrane-bound BCMA (mBCMA) levels in MM1S cell cultures treated with various gamma secretase inhibitors for 72 hours.
(§2) Target human cancer cell lines expressing various levels of human BCMA (NCI-H929^[High], MM1S^[med], U266B1^[low]) were all transduced to constitutively express luciferase, which is used to measure cell viability/survival with the BrightGlo reagent (Promega E2650). Target cells were plated 30,000 cells per well in a 96 well plate (Costar 3904) together with serial dilutions of a panel of gamma secretase inhibitors (Table 29). The plate was incubated at 37° C./5% CO2 for 72 hours, followed by measurements of cell viability (BrightGlo, Promega # E2650) according to vendor protocol. In a replicate set of assay plates, cell culture supernatants were collected by centrifugation and quantified for levels of soluble BCMA by ELISA (R&D Systems, DY193), and the remaining cells were stained with a PE conjugated BCMA antibody (clone 19F2, Biolegend 357504) and analyzed by flow cytometry for BCMA cell surface expression levels.
(§3) Raw OD450 values from the BCMA ELISA were plotted together with the mean fluorescent intensity values from flow cytometry analysis of cells stained with anti-BCMA antibody, and are shown for MM1S cells treated with the various GSIs in FIG. 3. Table 30 summarizes the EC50 results of all the GSIs on the three BCMA-expressing cell lines.

membrane BCMA expression = assay: GSI enhancement of membrane BCMA (mBCMA) expression, flow cytometry after 72 hours, NCI-H929, MM1S, U266B1 (Example 2, Table 30, FIG. 3); format: cell-based; settings: Homo sapiens
Procedure: as §1, §2, §3

[1] = test system: BCMA cell surface expression; assay: BCMA cell surface expression by flow cytometry with PE conjugated BCMA antibody, with or without GSI (Example 1, FIG. 1); format: cell-based, human; settings: BCMA-expressing multiple myeloma cell lines
Procedure: FIG. 1 is a set of histogram plots showing the staining of BCMA-expressing human cancer cell lines, NCI-H929, MM1S, and U266B1, using a PE conjugated anti-BCMA antibody. The cell lines were untreated, or treated with 1.0 μM DAPT or 0.1 μM LY-411,575 before subjected to a flow cytometry analysis.
Human cancer cell lines expressing various levels of human BCMA (NCI-H929^[High] MM1S^[Med], and U266B1^[low]) were all transduced to constitutively express luciferase, which is used to measure cell viability/survival with the BrightGlo reagent (Promega # E2650).
BCMA expressing cell lines were treated overnight with and without GSIs. Cell culture supernatants were collected and quantified for levels of soluble BCMA by ELISA (R&D Systems, # DY193). Additionally, remaining cells were pelleted, stained with a PE conjugated BCMA antibody (clone 19F2, Biolegend #357504) and analyzed by flow cytometry for BCMA cell surface expression levels.
BCMA cell surface expression level was determined by flow cytometry on cell lines with or without GSI treatment.

soluble BCMA = assay: Soluble BCMA in supernatants of MM cell lines U266 or RPMI 8226 by sandwich ELISA after 48 hrs GSI (Example 3, FIGS. 5A and 5B); format: cell-based, human; settings: RPMI 8226 cells treated, 6 μM-100 μM
Procedure: FIGS. 5A and 5B are a pair of graphs showing that a gamma secretase inhibitor reduces soluble BCMA released by MM cell lines. In FIGS. 5A and 5B, the amount of soluble BCMA (pg/ml) as measured by ELISA is plotted for each GSI concentration tested.
MM cell lines U266 or RPMI 8226 were incubated with several concentrations (6 μM-100 μM) of Ly 411575 gamma secretase inhibitor (Miltenyi) for 48 hrs. Supernatants were collected and secreted BCMA was measured using a sandwich ELISA (BCMA/TNFRSF17 ELISA Duo set, R&D Systems).

Row | SMILES | pEC50 (shed/soluble BCMA; MM1.S, MM1S cells) | pEC50 (shed/soluble BCMA; NCI-H929, H929 cells) | efficacious concentrations, rank among the panel of GSIs (shed/soluble BCMA) | pEC50 (membrane BCMA expression; MM1.S, MM1S cells) | pEC50 (membrane BCMA expression; NCI-H929, H929 cells) | pEC50 (membrane BCMA expression; U266B1 cells) | pEC50 (shed/soluble BCMA; U266B1 cells) | cell surface expression of BCMA (in words) [1] | secreted BCMA (soluble BCMA) [pg/mL]
1 | C[C@H](c1ccc(F)cc1CCCC(=O)O)N(c1cc(F)ccc1F)S(=O)(=O)c1ccc(Cl)cc1 [BMS-299897] | 6.10 | 6.28 | least | 6.31 | 6.82 | 5.77 |  |  | 
2 | NC(=O)[C@@H](CCC(F)(F)F)N(Cc1ccc(-c2ncon2)cc1F)S(=O)(=O)c1ccc(Cl)cc1 [BMS-708163, (R)-2-((4-chloro-N-(2-fluoro-4-(1,2,4-oxadiazol-3-yl)benzyl)phenyl)sulfonamido)-5,5,5-trifluoropentanamide] | 7.88 | 8.60 |  | 8.13 | 8.44 | 7.49 | 7.53 |  | 
3 | C[C@H](NC(=O)Cc1cc(F)cc(F)c1)C(=O)N[C@H](C(=O)OC(C)(C)C)c1ccccc1 [DAPT] | 6.84 | 6.66 |  | 7.01 | 6.84 | 6.40 | 6.34 | strongly enhances | 
4 | C[C@H](NC(=O)[C@@H](O)c1cc(F)cc(F)c1)C(=O)N[C@@H]1C(=O)N(C)c2ccccc2-c2ccccc21 [LY-411575, (S)-2-((S)-2-(3,5-difluorophenyl)-2-hydroxyacetamido)-N—((S)-5-methyl-6-oxo-6,7-dihydro-5H-dibenzo[b,c]azepin-7-yl)propanamide] | 10.00 | 9.70 | most potent |  | 10.00 | 10.00 | 10.00 | strongly enhances | 200
5 | CC(C)[C@H](O)C(=O)N[C@@H](C)C(=O)N[C@@H]1C(=O)N(C)CCc2ccccc21 [LY-450139, (S)-2-hydroxy-3-methyl-N—((S)-1-(((S)-3-methyl-2-oxo-2,3,4,5-tetrahydro-1H-benzo[d]azepin-1-yl)amino)-1-oxopropan-2-yl)butanamide] | 7.19 | 7.00 |  | 7.39 | 7.26 | 6.72 | 6.63 |  | 
6 | O=C(O)CC[C@H]1CC[C@@](c2cc(F)ccc2F)(S(=O)(=O)c2ccc(Cl)cc2)CC1 [MK-0752, 3-((1S,4R)-4-((4-chlorophenyl)sulfonyl)-4-(2,5-difluorophenyl)cyclohexyl)propanoic acid] | 6.25 | 6.57 |  | 6.48 | 7.16 | 5.92 | 5.98 |  | 
7 | CCC[C@H](N[C@H]1CCc2cc(F)cc(F)c2C1)C(=O)Nc1cn(C(C)(C)CNCC(C)(C)C)cn1 [PF-3084014, (S)-2-(((S)-6,8-difluoro-1,2,3,4-tetrahydronaphthalen-2-yl)amino)-N-(1-(2-methyl-1-(neopentylamino)propan-2-yl)-1H-imidazol-4-yl)pentanamide] | 7.49 | 7.46 |  | 7.44 | 7.50 | 7.15 | 7.17 |  | 
8 | O=S(=O)(N[C@@H](CO)C(C(F)(F)F)C(F)(F)F)c1ccc(Cl)s1 [PF-5212362, (R)-5-chloro-N-(4,4,4-trifluoro-1-hydroxy-3-(trifluoromethyl)butan-2-yl)thiophene-2-sulfonamide] | 6.92 | 6.86 |  | 7.28 | 7.86 | 6.25 | 6.23 |  | 
9 | CC(C)(C(=O)NCC(F)(F)C(F)(F)F)C(=O)N[C@@H]1C(=O)Nc2ccccc2-c2ccccc21 [RO4929097] | 8.34 | 8.52 |  | 8.49 | 8.36 | 8.00 | 8.21 |  | 
